Reference: ChEMBL document CHEMBL5096208, “Installation of Pargyline, a LSD1 Inhibitor, in the HDAC Inhibitory Template Culminated in the Identification of a Tractable Antiprostate Cancer Agent” (J Med Chem, 2021)
The source made the active and inactive calls. The rule behind the calls is not given here.

Key:
PC-3 [1] = assay: Antitumor activity against human PC-3 cells xenografted in athymic nude mouse assessed as tumor growth inhibition at 50 mg/kg, po qd measured upto 25 days by caliper method relative to control; type: functional; settings: PC-3, 600 h, time <= 25 day, read-out: TGI
[2] = Half life in Sprague-Dawley rat at 25 mg/kg, po administered once via gavage measured upto 24 hrs post dose by UPLC-MS/MS analysis; type: ADME, organism-based; settings: in vivo
Homo sapiens [3] = species on record: Homo sapiens; assay: Selectivity ratio of IC50 for human HDAC2 to IC50 for human HDAC6
Histone deacetylase 7 = target: T1, Histone deacetylase 7 (Homo sapiens, UniProt Q8WUI4); assay: Inhibition of human HDAC7 using Boc-Lys(trifluoroacetyl)-AMC as flurogenic substrate
T1 sequence (Q8WUI4 whole entry): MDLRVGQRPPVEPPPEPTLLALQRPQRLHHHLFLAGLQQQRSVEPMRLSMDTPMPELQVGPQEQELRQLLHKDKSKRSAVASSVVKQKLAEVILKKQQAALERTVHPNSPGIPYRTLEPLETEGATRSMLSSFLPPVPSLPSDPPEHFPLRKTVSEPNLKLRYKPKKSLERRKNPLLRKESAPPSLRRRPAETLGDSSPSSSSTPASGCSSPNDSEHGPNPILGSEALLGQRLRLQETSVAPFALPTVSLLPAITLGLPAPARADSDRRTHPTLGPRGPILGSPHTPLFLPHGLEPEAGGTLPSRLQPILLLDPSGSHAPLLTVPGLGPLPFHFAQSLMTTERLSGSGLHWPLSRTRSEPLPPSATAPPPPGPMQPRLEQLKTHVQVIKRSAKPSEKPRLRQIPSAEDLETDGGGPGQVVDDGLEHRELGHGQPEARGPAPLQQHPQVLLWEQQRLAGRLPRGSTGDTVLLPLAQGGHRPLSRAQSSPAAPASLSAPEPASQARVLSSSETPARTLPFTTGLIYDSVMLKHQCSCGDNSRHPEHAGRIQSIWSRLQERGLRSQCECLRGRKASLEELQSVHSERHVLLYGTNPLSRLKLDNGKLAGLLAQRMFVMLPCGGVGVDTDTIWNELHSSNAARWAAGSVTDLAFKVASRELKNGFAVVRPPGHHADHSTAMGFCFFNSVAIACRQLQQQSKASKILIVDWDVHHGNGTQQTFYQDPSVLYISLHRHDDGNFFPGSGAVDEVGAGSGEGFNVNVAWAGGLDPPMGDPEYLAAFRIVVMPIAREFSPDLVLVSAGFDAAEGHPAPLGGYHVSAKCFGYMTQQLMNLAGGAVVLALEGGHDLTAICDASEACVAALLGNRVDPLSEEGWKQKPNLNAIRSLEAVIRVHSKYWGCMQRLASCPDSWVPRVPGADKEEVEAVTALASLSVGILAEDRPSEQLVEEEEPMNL

[4] = Oral bioavailability in Sprague-Dawley rat at 25 mg/kg formulated using SMEDDS administered once via gavage measured upto 24 hrs post dose by UPLC-MS/MS analysis; type: ADME, organism-based; settings: in vivo
PC-3 [5] = assay: Upregulation of acetyl-tubulin in human PC-3 cells at 0.625 to 5 uM by Western blot analysis; type: functional, cell-based; settings: dose 0.625-5 µM
Histone deacetylase 5 = Histone deacetylase 5 (Homo sapiens, UniProt Q9UQL6); assay: Inhibition of human HDAC5 using Boc-Lys(trifluoroacetyl)-AMC as flurogenic substrate
Histone deacetylase 5, sequence (Q9UQL6 whole entry): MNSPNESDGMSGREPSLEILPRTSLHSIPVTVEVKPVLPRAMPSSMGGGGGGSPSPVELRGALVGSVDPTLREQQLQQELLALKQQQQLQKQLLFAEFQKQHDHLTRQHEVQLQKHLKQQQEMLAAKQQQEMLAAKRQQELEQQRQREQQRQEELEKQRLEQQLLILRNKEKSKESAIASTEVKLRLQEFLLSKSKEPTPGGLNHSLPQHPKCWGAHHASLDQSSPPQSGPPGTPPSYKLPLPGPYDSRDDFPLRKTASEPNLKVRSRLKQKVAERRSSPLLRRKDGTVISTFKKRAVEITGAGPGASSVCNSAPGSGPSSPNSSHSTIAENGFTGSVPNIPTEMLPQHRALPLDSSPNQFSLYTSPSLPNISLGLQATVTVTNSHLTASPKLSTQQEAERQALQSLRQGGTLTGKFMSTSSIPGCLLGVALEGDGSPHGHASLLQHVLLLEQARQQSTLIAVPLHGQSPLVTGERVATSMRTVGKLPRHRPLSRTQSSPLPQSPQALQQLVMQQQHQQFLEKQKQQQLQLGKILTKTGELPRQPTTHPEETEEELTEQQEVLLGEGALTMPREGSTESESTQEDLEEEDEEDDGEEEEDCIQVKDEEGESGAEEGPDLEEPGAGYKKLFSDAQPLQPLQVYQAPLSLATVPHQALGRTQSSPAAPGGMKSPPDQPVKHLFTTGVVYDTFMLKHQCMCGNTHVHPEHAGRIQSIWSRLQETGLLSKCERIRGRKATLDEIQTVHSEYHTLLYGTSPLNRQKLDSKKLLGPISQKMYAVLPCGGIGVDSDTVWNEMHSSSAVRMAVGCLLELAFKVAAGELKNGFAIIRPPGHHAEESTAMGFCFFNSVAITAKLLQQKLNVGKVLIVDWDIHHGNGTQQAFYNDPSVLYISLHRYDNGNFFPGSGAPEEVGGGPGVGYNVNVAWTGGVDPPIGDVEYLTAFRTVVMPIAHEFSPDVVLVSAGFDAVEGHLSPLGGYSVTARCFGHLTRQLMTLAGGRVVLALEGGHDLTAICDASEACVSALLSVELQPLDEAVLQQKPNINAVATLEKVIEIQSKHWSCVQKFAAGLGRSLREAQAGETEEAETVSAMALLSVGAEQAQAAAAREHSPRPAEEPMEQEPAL

[6] = Metabolic stability in Sprague-Dawley rat hepatocyte assessed as parent compound remaining at 10 uM incubated for 60 mins by LC-MS/MS analysis; type: ADME, cell-based; settings: hepatocytes, read-out: Stability
DU-145 [7] = assay: Antitumor activity against human DU-145 cells xenografted in athymic nude mouse assessed as tumor growth inhibition at 200 mg/kg, po administered twice daily and measured upto 60 days by caliper method relative to control; type: functional; settings: DU-145, 1440 h, time <= 60 day, read-out: TGI
[8] = Metabolic stability in human hepatocyte assessed as half life at 10 uM by LC-MS/MS analysis; type: ADME, cell-based; settings: hepatocytes
[9] = Clearance in Sprague-Dawley rat at 2 mg/kg, iv administered as single dose through tail vein measured upto 24 hrs post dose by UPLC-MS/MS analysis; type: ADME, organism-based; settings: in vivo
[10] = Volume of distribution at steady state in Sprague-Dawley rat at 2 mg/kg, iv administered as single dose through tail vein measured upto 24 hrs post dose by UPLC-MS/MS analysis; type: ADME, organism-based; settings: in vivo, read-out: Vdss
[11] = AUC (0 to 24 hrs) in Sprague-Dawley rat at 25 mg/kg, po formulated using SMEDDS administered once via gavage measured upto 24 hrs post dose by UPLC-MS/MS analysis; type: ADME, organism-based; set-up: dose 25 mg/kg, time < 24 hrs, route po; settings: in vivo
PC-3 [12] = assay: Upregulation of acetyl-histone H3 in human PC-3 cells at 0.625 to 5 uM by Western blot analysis; type: functional, cell-based; settings: dose 0.625-5 µM
[13] = Half life in Sprague-Dawley rat at 2 mg/kg, iv administered as single dose through tail vein measured upto 24 hrs post dose by UPLC-MS/MS analysis; type: ADME, organism-based; settings: in vivo
DU-145 [14] = assay: Upregulation of acetyl-tubulin in human DU-145 cells at 0.625 to 5 uM by Western blot analysis; type: functional, cell-based; settings: dose 0.625-5 µM
[15] = AUC (0 to infinity) in Sprague-Dawley rat at 25 mg/kg, po administered once via gavage measured upto 24 hrs post dose by UPLC-MS/MS analysis; type: ADME, organism-based; set-up: time < 24 hrs, dose 25 mg/kg, route po; settings: in vivo
[16] = AUC (0 to infinity) in Sprague-Dawley rat at 2 mg/kg, iv administered as single dose through tail vein measured upto 24 hrs post dose by UPLC-MS/MS analysis; type: ADME, organism-based; set-up: dose 2 mg/kg, time < 24 hrs, route iv; settings: in vivo
[17] = C0 in Sprague-Dawley rat at 2 mg/kg, iv administered as single dose through tail vein measured upto 24 hrs post dose by UPLC-MS/MS analysis; type: ADME, organism-based; settings: in vivo
[18] = Metabolic stability in Sprague-Dawley rat hepatocyte assessed as parent compound remaining at 10 uM incubated for 120 mins by LC-MS/MS analysis; type: ADME, cell-based; settings: hepatocytes, read-out: Stability
[19] = Metabolic stability in human hepatocyte assessed as intrinsic clearance at 10 uM by LC-MS/MS analysis; type: ADME, cell-based; settings: hepatocytes, read-out: CLH
Homo sapiens [20] = species on record: Homo sapiens; assay: Selectivity ratio of IC50 for human HDAC8 to IC50 for human HDAC6
[21] = Metabolic stability in human hepatocyte assessed as parent compound remaining at 10 uM incubated for 30 mins by LC-MS/MS analysis; type: ADME, cell-based; settings: hepatocytes, read-out: Stability
Histone deacetylase 1 = Histone deacetylase 1 (Homo sapiens, UniProt Q13547); assay: Inhibition of human HDAC1 (379 to 382 residues) using RHKKAc as flurogenic substrate
Histone deacetylase 1, sequence (Q13547 whole entry, the tested form may be a part): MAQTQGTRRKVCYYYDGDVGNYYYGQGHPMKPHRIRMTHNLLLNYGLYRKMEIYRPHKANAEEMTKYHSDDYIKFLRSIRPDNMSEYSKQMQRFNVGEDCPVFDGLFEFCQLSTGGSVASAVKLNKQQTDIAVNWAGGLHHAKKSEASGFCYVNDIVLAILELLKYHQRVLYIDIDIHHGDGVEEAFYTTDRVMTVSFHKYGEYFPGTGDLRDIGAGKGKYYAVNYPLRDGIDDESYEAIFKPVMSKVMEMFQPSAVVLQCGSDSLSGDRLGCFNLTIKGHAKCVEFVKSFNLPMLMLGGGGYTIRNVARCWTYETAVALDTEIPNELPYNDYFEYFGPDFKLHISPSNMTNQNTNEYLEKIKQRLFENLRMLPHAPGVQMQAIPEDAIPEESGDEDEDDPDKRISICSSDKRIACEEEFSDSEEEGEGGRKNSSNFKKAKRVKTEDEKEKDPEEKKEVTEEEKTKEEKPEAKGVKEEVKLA

[22] = Metabolic stability in Sprague-Dawley rat hepatocyte assessed as parent compound remaining at 10 uM by LC-MS/MS analysis; type: ADME, cell-based; settings: hepatocytes, read-out: Stability
PC-3 [23] = assay: Antitumor activity against human PC-3 cells xenografted in athymic nude mouse assessed as tumor growth inhibition at 100 mg/kg, po qd measured upto 25 days by caliper method relative to control; type: functional; settings: PC-3, 600 h, time <= 25 day, read-out: TGI
[24] = Metabolic stability in Beagle dog hepatocyte assessed as intrinsic clearance at 10 uM by LC-MS/MS analysis; type: ADME, cell-based, Canis lupus familiaris; settings: hepatocytes, read-out: CLH
[25] = Cmax in Sprague-Dawley rat at 25 mg/kg, po formulated using SMEDDS administered once via gavage measured upto 24 hrs post dose by UPLC-MS/MS analysis; type: ADME, organism-based; set-up: dose 25 mg/kg, time < 24 hrs, route po; settings: in vivo

## C#CCN(C)Cc1cccc(NC(=O)CCCCCCC(=O)NO)c1
PC-3 [1]
  inhibition in vivo at 50 mg/kg: 36.9%
[2]
  half-life: 3.4 h
Homo sapiens [3]
  Ratio IC50: 77
Histone deacetylase 7
  IC50: > 10 µM
[4]
  bioavailability: 62.1%
PC-3 [5]
  Activity: Active
Histone deacetylase 5
  IC50: 13.4 µM
[6]
  remaining at 1 h, 10 µM: 52.5%
DU-145 [7]
  inhibition in vivo at 200 mg/kg: 80.8%
[8]
  half-life at 10 µM: 13.3 h
[9]
  clearance: 500 mL/min/kg
[10]
  Vd: 247 L/kg
[11]
  AUC(0-t) at 24 h: 587 ng·h/mL
PC-3 [12]
  Activity: Active
[13]
  half-life: 8.1 h
DU-145 [14]
  Activity: Active
[15]
  AUC(0-inf): 113 ng·h/mL
[16]
  AUC(0-inf): 76.8 ng·h/mL
[17]
  C0 at 24 h: 38.1 ng/mL
[18]
  remaining at 2 h, 10 µM: 35.9%
[19]
  CLint scaled at 10 µM: 9.78 mL/min/kg
Homo sapiens [20]
  Ratio IC50: 10.5
[21]
  remaining at 0.5 h, 10 µM: 103%
Histone deacetylase 1
  IC50: 0.673 µM
[22]
  remaining at 10 µM: 100%
PC-3 [23]
  inhibition in vivo at 100 mg/kg: 53.1%
[24]
  CLint scaled at 10 µM: 21.6 mL/min/kg
[25]
  Cmax: 257 ng/mL
